# Values quoted from earlier work, collected in US6872562B2, “Herbicide resistant dinitrogen fixing bacteria and method of use” (priority 2001, dated 2005).
# Test system: soybean
# Settings: in vivo; cited from earlier work
compound,measurement,value
CCCN(CCC)c1c([N+](=O)[O-])cc(C(F)(F)F)cc1[N+](=O)[O-] [Trifuralin],Effect on nodulation and N2 fixation,decreases nodulation and N2 fixation
